Source: PMC10374545, “A small molecule inhibitor of PTP1B and PTPN2 enhances T cell anti-tumor immunity” (Nature Communications, 2023)
Several values for one entry are separate records, joined by “and”; a condition that tells them apart may be missing. Identical values can stand only once.

Experiments:
[1] = Serum liver enzymes AST and ALT; type: in vivo, mouse; set-up: Serum ALT: unit not given here
Excerpt: CD3ε (BD Biosciences Cat# 553058) and CD28 (BD Biosciences Cat# 557393) antibodies for T cell stimulation and NK1.1 (BD Biosciences Cat# 564143) antibody for NK cell stimulation were purchased from BD Biosciences. Ly49H (clone 3D10, BioLegend Cat# 144702) antibody for NK stimulation was from BioLegend. For analyzing T cell signaling, p-(Y418) SFK (Thermo Fisher Scientific Cat# 14-9034-82) was from Invitrogen and p-(Y694) STAT-5 (D47E7) XP® (Cell Signaling Technology Cat# 4322) was from Cell Signaling. Recombinant human IL-2, recombinant murine IL-7 and recombinant human IL-15 were purchased from the PeproTech, recombinant mouse IL-12 and recombinant human IL-18 were from Australia Biosearch and […] (N4) from Mimotopes. InVivoMAb anti-mouse PD-1 (Bio X Cell Cat# BE0146) and InVivoMAb rat IgG2a isotype control (Bio X Cell Cat# BE0251) were purchased from Bio X Cell. DNase I was from Sigma-Aldrich. Rabbit monoclonal PTP1B (Abcam Cat# ab244207) antibody for flow cytometry was from Abcam and mouse monoclonal PTPN2 6F3 antibody for immunoblotting and flow cytometry was from MédiMabs (Cat# MM-019-P). Mouse anti-actin (Thermo Fisher Scientific Cat# MA5-11866) from Invitrogen and mouse α-tubulin (Sigma-Aldrich Cat# T5168) was from Merck. The mouse anti-nuclear antibodies Ig’s (total IgA+G + M) ELISA Kit was from Alpha Diagnostic Int. and the Transaminase II Kit from Wako Pure Chemicals. FBS was purchased from Thermo Scientific, RPMI 1640, DMEM, MEM, HEPES, non-essential amino acids, penicillin/streptomycin, and sodium-pyruvate were from Invitrogen, collagenase type IV was purchased from Worthington Biochemical and ABBV-CLS-484 was from MedChemExpress (Cat# HY-145923).

PTPN2 = biological target: T1, PTPN2 (Homo sapiens, UniProt P17706); experiment: PTP inhibition assay with DiFMUP substrate (IC50); type: biochemical
T1 construct: PTPN2, residues 1-387; made in house; host or cells: E. coli BL21(DE3)
T1 sequence (P17706 1-387 isoform P17706-2): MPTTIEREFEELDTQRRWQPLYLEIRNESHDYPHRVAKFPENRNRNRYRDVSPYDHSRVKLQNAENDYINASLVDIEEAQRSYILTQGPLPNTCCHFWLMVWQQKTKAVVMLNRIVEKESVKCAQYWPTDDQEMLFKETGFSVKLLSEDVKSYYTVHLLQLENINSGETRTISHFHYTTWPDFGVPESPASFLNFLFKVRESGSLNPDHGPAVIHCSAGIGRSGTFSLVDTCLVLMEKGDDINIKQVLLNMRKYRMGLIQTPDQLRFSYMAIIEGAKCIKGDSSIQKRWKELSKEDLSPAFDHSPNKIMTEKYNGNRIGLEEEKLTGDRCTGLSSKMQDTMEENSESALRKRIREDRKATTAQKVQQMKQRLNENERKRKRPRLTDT
Experimental: E. coli BL21(DE3) (Novagen) was used as an expression host and the induction of protein expression was carried out in LB media with 1 mM IPTG at 18 °C overnight. Cell pellets were stored at −80 °C for subsequent protein purification.
Protein purification of PTPs for enzymatic assays was conducted at 4 °C. Frozen cell pellets were lysed by sonication in 40 ml cold lysis buffer (50 mM Tris-HCl, pH 8.0, 150 mM NaCl, 5 mM imidazole, and 1 mM PMSF) per litre cell pellet. Cell lysates were clarified by centrifugation using a Beckman JA-18 rotor for 15 min at 5308 x g. The supernatant was incubated with HisPur Ni-NTA resin (Thermo Scientific) for 2 h and then packed onto a column and washed with 50 resin volume of buffer A (50 mM Tris-HCl, pH 8.0, 500 mM NaCl, 5 mM imidazole). The His-tagged proteins were eluted with Buffer B (50 mM Tris-HCl, pH=8.0, 500 mM NaCl, 300 mM imidazole,). Pooled His-protein-containing fractions were concentrated, loaded onto a HiLoad 26/600 Superdex 75 column (GE Healthcare Biosciences) and eluted with storage buffer (50 mM Tris-HCl, pH 8.0, 150 mM NaCl, 1 mM DTT, 10% glycerol). […] The protein was aliquoted and stored at −80 °C.
The PTP kinetic assay was modified from previous reported protocols[73],[74]. […] The fluorescence signal was measured using a CLARIOstar Plus Microplate Spectrophotometer (BMG Labtech) using excitation and emission wavelengths of 340 nm and 450 nm, respectively. […]
To determine the mode of inhibition, the reactions were initiated by the addition of enzyme (final concentration for PTP1B and PTPN2 was 0.05 nM) to the reaction mixtures (0.2 ml) containing various concentrations of DiFMUP with different concentrations of the inhibitor. […] The fluorescence signal was measured using a CLARIOstar Plus Microplate Spectrophotometer (BMG Labtech) using excitation and emission wavelength of 340 nm and 450 nm, respectively. […]

Structure (SMILES): CC(C)(O)CCOc1ccc2cc(O)c(N3CC(=O)NS3(=O)=O)c(F)c2c1 [Compound 182, 5-(1-Fluoro-3-hydroxy-7-(3-hydroxy-3-methylbutoxy)naphthalen-2-yl)−1,2,5-thiadiazolidin-3-one 1,1-dioxide]
- circulating aspartate aminotransferase (AST) ([1]; 10 mg/kg i.v.): moderately increased
- serum alanine aminotransferase (ALT) ([1]; 10 mg/kg i.v.): unaffected
- Serum ALT ([1]; Figure 10C, individual mice, listed as CMP-182): 680.498 and 1112.03 and 497.925 and 464.73 and 414.938 and 597.51 and 697.095 and 730.29
- Serum AST ([1]; Figure 10C, individual mice, listed as CMP-182, in U/L (unit assumed)): 1826.92 and 3480.77 and 2019.23 and 1211.54 and 1250 and 1519.23 and 2346.15 and 4019.23
- GPT, median ([1]; Figure 10C, serum ALT, median, n=8): 639.0, n=8
- GOT, median ([1]; Figure 10C, serum AST, median, n=8): 1923, n=8
- IC50 (PTPN2; DiFMUP 10 μM as substrate): 0.58 ± 0.02 nM
- IC50 (PTPN2; TC-PTP, DiFMUP 10 μM, pH 7.0, 25 °C): 0.58 ± 0.02 nM
